This is an account of results in patent US8629164B2, “Inhibitors of NF-κB” (Profectus Biosciences, Inc., priority 2009, dated 2014).

In one test the target is T1, c-Rel (Homo sapiens, UniProt Q04864).
T1 sequence (Q04864 2-619 limits assumed): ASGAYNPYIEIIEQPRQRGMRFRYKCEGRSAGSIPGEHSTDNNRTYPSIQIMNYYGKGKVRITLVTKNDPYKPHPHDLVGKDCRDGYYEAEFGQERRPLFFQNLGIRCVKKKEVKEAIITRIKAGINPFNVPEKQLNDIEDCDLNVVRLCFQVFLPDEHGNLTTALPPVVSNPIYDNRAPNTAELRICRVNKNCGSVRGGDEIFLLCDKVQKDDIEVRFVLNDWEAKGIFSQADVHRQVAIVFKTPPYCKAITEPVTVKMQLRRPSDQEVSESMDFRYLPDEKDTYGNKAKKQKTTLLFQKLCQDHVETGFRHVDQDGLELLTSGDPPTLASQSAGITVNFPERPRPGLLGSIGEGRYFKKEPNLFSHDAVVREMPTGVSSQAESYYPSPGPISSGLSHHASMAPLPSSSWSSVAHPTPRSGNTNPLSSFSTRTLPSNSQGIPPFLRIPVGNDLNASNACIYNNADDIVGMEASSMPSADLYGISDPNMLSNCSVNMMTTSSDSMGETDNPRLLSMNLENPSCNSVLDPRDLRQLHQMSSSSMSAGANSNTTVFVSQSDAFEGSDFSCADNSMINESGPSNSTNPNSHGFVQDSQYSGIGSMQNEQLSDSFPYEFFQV
Put plainly: TransAM NF-κB Family DNA Binding ELISA, c-Rel. The note with it: c-Rel binding IC50 (uM), cells without % sign.

A further test deals with NF-κB. Put plainly: 293-cell pTRH1-NF-κB-dscGFP reporter assay, TNF-α induced. As to conditions: for EC50: Homo sapiens, HEK293, HEK293 cells, NF-κB driven GFP expression, read-out: NF-kB/293/GFP EC50. It is filed as cell-based. A digest of the protocol:
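HEK293 cells with stably integrated NF-κB reporters, pNF-κB-luc (3 elements) or pTRH1-NF-κB-dscGFP (4 elements). Cells pretreated 2 h with 0–40 μM compound, then stimulated with 20 ng/ml TNF-α for 18 h; luminescence or fluorescence read. Activity referenced to 0.5% DMSO control; median of three independent experiments.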

Test [1] concerns IL-6 release from RAW264.7 cells. Put plainly: IL-6 release from LPS stimulated RAW264.7 cells. The test is classed as cell-based, mouse. The note with it: for EC50: Mus musculus, RAW264.7, RAW 264.7 cells. The procedure: Specifically, A and B show the effects of the compound of Example 1 on soluble PGE2 and Il-6 secretion from RAW264.7 cells stimulated by 1 μg/mL of LPS. The cells were treated with the indicated concentrations of the compound of Example 1 for 2 hours, and then LPS was added and incubation continued for 4 hours. […]

The subject of test [2] is PGE2 release from RAW264.7 cells. Put plainly: PGE2 release from LPS stimulated RAW264.7 cells. It is filed as cell-based, mouse. As to conditions: for EC50: Mus musculus, RAW264.7, RAW 264.7 cells. As for the experimental part: Specifically, A and B show the effects of the compound of Example 1 on soluble PGE2 and Il-6 secretion from RAW264.7 cells stimulated by 1 μg/mL of LPS. The cells were treated with the indicated concentrations of the compound of Example 1 for 2 hours, and then LPS was added and incubation continued for 4 hours.
LPS stimulation induces the expression of COX-2 the enzyme responsible for prostaglandin E2.

The next test deals with T2, p50 (Homo sapiens, UniProt P19838).
T2 sequence (P19838 1-433 limits assumed): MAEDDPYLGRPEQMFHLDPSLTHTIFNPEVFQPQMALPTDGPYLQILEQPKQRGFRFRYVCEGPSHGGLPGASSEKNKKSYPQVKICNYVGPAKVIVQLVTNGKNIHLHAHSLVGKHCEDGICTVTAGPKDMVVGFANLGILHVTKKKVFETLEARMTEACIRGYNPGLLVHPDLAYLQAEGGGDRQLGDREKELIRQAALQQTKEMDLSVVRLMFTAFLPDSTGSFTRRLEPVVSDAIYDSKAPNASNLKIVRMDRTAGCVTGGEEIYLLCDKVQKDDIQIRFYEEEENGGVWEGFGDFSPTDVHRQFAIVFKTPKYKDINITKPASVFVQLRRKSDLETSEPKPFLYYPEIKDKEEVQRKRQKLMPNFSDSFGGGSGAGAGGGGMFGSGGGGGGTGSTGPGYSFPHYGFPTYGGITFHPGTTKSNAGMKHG
Put plainly: TransAM NF-κB Family DNA Binding ELISA, p50. The note with it: p50 binding IC50 (uM), cells without % sign.

The target in a further test is T3, p52 (Homo sapiens, UniProt Q00653).
T3 sequence (Q00653 1-454 limits assumed): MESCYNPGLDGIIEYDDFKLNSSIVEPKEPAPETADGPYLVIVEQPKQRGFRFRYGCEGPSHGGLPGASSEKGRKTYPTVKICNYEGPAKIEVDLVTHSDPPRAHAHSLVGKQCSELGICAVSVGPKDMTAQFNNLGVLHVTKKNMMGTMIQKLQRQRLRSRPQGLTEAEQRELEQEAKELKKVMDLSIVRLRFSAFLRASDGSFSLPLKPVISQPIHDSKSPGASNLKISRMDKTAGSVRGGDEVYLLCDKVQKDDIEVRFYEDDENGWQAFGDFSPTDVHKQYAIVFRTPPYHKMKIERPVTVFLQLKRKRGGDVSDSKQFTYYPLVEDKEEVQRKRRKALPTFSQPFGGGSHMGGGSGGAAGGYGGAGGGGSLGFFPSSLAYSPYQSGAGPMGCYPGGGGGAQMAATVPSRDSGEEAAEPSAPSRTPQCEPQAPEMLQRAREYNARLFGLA
Put plainly: TransAM NF-κB Family DNA Binding ELISA, p52. The note with it: p52 binding IC50 (uM), cells without % sign.

The target in the next test is p65 (RelA) (Homo sapiens, UniProt Q04206). Put plainly: TransAM NF-κB Family DNA Binding ELISA, p65. The note with it: for IC50: p65 binding IC50 (uM), binding to NF-κB sites.
p65 (RelA), sequence (Q04206 whole entry): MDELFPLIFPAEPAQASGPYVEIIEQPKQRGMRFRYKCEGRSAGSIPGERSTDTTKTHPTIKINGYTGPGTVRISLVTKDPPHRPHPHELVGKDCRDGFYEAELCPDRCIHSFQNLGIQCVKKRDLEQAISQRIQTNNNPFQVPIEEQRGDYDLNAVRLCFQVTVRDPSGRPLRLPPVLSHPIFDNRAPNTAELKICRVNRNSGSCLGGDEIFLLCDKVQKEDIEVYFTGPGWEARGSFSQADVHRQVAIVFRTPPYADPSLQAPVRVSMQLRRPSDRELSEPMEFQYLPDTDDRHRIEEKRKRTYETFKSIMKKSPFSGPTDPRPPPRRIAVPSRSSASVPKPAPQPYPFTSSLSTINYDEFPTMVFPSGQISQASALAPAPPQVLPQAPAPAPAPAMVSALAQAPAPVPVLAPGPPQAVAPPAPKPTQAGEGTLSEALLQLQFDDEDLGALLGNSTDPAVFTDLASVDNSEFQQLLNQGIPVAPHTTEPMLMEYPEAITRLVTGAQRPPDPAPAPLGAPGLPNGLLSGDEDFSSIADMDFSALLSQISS

Method for p50: (§1) Treated samples were then transferred to 30 μL Complete Binding Buffer (with DTT) in microplate wells pre-coated with the NF-κB consensus oligonucleotide. […] The plate was incubated for 1 hour at room temperature with gentle shaking and then washed 3 times with 200 μL 1× Wash Buffer. NF-κB p65, p50, p52, RelB, or c-Rel subunits bound to the plate were detected with 100 μL of the primary antibody (diluted 1:1000 in 1× Antibody Buffer) specific for that subunit. The plate was incubated for 1 hour at room temperature and then washed 3 times with 200 μL 1× Wash Buffer. Next, 100 μL of a HRP conjugated goat anti-rabbit antibody (diluted 1:1,000 in 1× Antibody Buffer) was added to each well. The plate was incubated for 1 hour at room temperature and then washed 4 times with 200 μL 1× Wash Buffer. 100 μL of room temperature Developing Solution was added to each well. The reaction was allowed to develop for 2-10 minutes until a medium dark blue color developed (depending on the subunit activity in the lot of extract or lot of recombinant protein used) and then the reaction was stopped with 100 μL Stop Solution yielding a yellow color. Absorbance was recorded using a Becton-Dickinson DTX 880 Multimode Detector at 450 nm with a reference wavelength subtracted at 620 nm.
Method for p52: as §1
Method for p65 (RelA): as §1

Regarding `O=C(NC1=CC(=O)C2OC2C1O)c1cccnc1O` (racemic) [Example 1, (±)-2-hydroxy-N-(2-hydroxy-5-oxo-7-oxabicyclo[4.1.0]hept-3-en-3-yl)nicotinamide], the IC50 on c-Rel worked out at 4.6 µM; in the test on NF-κB (2 hours pre-treatment, 20 ng/ml TNF-α 18 hours, median of three experiments ± standard error, read-out: median IC50, expression of the Green fluorescent protein gene) it was 6.2 ± 0.5 µM; on p50 it was 26 µM; at p52 it was 13 µM; at p65 (RelA), 2.2 µM. Besides, the EC50 came to 6.2 µM in the test with NF-κB, 6.5 µM in test [1] and 6.9 µM in test [2]. Moreover, the “inhibition of IL-6” value in test [1] (LPS stimulated RAW264.7, FIG. 5B) was “inhibited in a dose dependent manor”. The “decrease in downstream PGE2 synthesis” value in test [2] (LPS stimulated, FIG. 5A) is on record as “dose dependent”.
As to `O=C(NC1=CC(=O)C2OC2C1O)c1cc2ccccc2nc1O` (racemic) [Example 2, (±)-2-hydroxy-N-(2-hydroxy-5-oxo-7-oxabicyclo[4.1.0]hept-3-en-3-yl)quinoline-3-carboxamide], the IC50 at c-Rel was found to be 2.1 µM; at p50, 2.1 µM; at p52 it was 6 µM; at p65 (RelA), 1.4 µM. Moreover, the EC50 with NF-κB amounted to 0.21 µM; in test [1] it was 0.24 µM; in test [2] it was 1.8 µM. Also, the “inhibition of p65 (RelA) binding to DNA, comparison” value on p65 (RelA) (FIG. 7, canonical pathway) is “more potently than DHMEQ and parthenolide”.
